Test results published in patent publication US4968697A, “2-substituted adenosine 5'-carboxamides as antihypertensive agents” (Ciba-Geigy Corporation, priority 1989, dated 1990).
Counter-ions that a name gives are not always drawn.

Columns and labels:
normotensive rat = experiment: blood pressure lowering effect in normotensive rats (i.v.); type: in vivo; conditions: iv, read-out: dose that lowers blood pressure (as low as)
Procedure: (§1) Indicative of in vivo adenosine receptor agonist activity, the hypotensive activity of the compounds of the invention as well as their effect on heart rate can be measured in normotensive or spontaneous hypertensive rats on intravenous or oral administration.
Typically, the blood pressure lowering effect in normotensive rats can be determined as follows:
Adult male rats weighing 300-400 g are anesthetized using Inactin (100 mg/kg, i.p.). A femoral artery and contralateral vein are cannulated for direct blood pressure measurement and i.v. drug administration, respectively. Animals are allowed a 15 minute equilibration period before testing. Vehicle (1 ml/kg, i.v.) is administered over a 30 second period followed by a 0.3 ml saline flush administered over a 30 second period. Changes in diastolic blood pressure are recorded using a Beckman polygraph while heart rate is recorded as a derivative of the blood pressure pulse. The test compound is administered in the same manner as vehicle and a dose response curve is established. Percent changes in heart rate and blood pressure are recorded.

[1] = test system: spontaneous hypertensive rat; experiment: blood pressure lowering effect in the spontaneous hypertensive rat (oral); type: in vivo; conditions: p.o., read-out: dose that lowers blood pressure (as low as)
Procedure: as §1
The blood pressure lowering effect in the spontaneous hypertensive rat is determined on oral administration.

[2] = target: T1, adenosine-2 (A-2) receptor (Rattus norvegicus, UniProt P30543); experiment: in vitro adenosine-2 (A-2) receptor binding: inhibition of specific 3H-NECA binding in rat striatal membranes; parameters: species or system male Sprague-Dawley rats; conditions: 4 nM 3H-NECA, in presence of 50 nM cyclopentyladenosine
T1 construct: striatal membrane preparations from corpus striatum of male Sprague-Dawley rats; from tissue; host or cells: corpus striatum membranes of male Sprague-Dawley rats
T1 sequence (P30543 whole entry): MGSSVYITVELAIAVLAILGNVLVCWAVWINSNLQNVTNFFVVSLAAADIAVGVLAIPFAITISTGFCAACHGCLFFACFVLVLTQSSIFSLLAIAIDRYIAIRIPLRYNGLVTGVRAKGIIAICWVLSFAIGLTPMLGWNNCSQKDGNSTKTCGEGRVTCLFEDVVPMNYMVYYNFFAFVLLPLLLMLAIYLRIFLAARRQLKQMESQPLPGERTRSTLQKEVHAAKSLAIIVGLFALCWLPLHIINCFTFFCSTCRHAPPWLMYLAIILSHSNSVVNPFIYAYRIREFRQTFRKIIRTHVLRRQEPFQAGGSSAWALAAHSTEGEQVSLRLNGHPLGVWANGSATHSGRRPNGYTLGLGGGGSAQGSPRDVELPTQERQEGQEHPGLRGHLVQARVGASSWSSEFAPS
Procedure: The concentration of a particular compound required to displace the specific binding of 4 nM ^3 H-NECA is determined in the presence of 50 nM cyclopentyladenosine.

| IC50 [2] [nM] | SMILES | minimal effective dose (normotensive rat) [mg/kg] | minimal effective dose [1] [mg/kg] |
| --- | --- | --- | --- |
| – | CCNC(=O)[C@H]1O[C@@H](n2cnc3c(N)nc(NCCc4ccc(CCC(=O)O)cc4)nc32)[C@H](O)[C@@H]1O [Example 2g, 2-[p-(2-carboxyethyl)-2-phenethylamino]-adenosine5'-(N-ethyl)-carboxamide] | ~0.005 | ~3 |
| ~13 | CCNC(=O)[C@H]1O[C@@H](n2cnc3c(N)nc(NCCC4CCCCC4)nc32)[C@H](O)[C@@H]1O [Example 2n, 2-(2-cyclohexylethylamino)-adenosine-5'-(N-ethyl)carboxamide hydrochloride] | – | – |
